# Reference: ChEMBL document CHEMBL2203252, “Brominated aromatic furanones and related esters from the ascidian Synoicum sp” (J Nat Prod, 2012)
# Assays:
# Staphylococcus aureus = experiment: Antimicrobial activity against Staphylococcus aureus ATCC 6538p after 24 hrs; format: functional
# [1] = Cytotoxicity against human K562 cells after 48 hrs by MTT assay; format: cell-based; settings: read-out: LC50
# Salmonella enterica = experiment: Antimicrobial activity against Salmonella enterica ATCC 14028 after 24 hrs; format: functional; settings: ATCC 14028, 24 h
# Proteus hauseri = experiment: Antimicrobial activity against Proteus hauseri NBRC 3851 after 24 hrs; format: functional; settings: NBRC 3851, 24 h
# [2] = Inhibition of Na+/K+-ATPase by fluorometric method
# Kocuria rhizophila = experiment: Antimicrobial activity against Kocuria rhizophila NBRC 12708 after 24 hrs; format: functional; settings: NBRC 12708, 24 h
# [3] = Inhibition of SortaseA
# Isocitrate lyase = Isocitrate lyase (Candida albicans, UniProt Q9P8Q7); experiment: Inhibition of Candida albicans ATCC 10231 isocitrate lyase by spectrophotometric analysis
# [4] = Cytotoxicity against human A549 cells after 48 hrs by MTT assay; format: cell-based; settings: read-out: LC50
# Bacillus spizizenii = experiment: Antimicrobial activity against Bacillus subtilis ATCC 6633 after 24 hrs; format: functional; settings: ATCC 6633, 24 h
# Escherichia coli = experiment: Antimicrobial activity against Escherichia coli ATCC 35270 after 24 hrs; format: functional; settings: ATCC 35270, 24 h
# Sequence of Isocitrate lyase (Q9P8Q7 whole entry): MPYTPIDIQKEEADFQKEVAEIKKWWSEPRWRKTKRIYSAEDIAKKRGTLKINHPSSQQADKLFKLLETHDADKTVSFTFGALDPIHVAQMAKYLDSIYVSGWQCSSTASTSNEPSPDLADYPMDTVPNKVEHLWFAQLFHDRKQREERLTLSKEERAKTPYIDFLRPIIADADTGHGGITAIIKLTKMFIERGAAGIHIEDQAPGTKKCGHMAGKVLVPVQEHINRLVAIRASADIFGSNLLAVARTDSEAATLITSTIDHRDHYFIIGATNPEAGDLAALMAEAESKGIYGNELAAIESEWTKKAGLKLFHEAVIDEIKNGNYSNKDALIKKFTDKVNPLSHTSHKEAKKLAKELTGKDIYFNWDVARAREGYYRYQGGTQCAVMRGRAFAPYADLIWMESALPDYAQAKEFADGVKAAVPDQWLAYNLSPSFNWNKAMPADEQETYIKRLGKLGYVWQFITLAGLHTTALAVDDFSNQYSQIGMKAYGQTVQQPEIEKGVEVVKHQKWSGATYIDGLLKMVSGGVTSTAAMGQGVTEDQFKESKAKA
Compound,MIC (Staphylococcus aureus),CC50 at 48 h [1],MIC (Salmonella enterica),MIC (Proteus hauseri),IC50 [2],MIC (Kocuria rhizophila),IC50 [3],IC50 (Isocitrate lyase),CC50 at 48 h [4],MIC (Bacillus spizizenii),MIC (Escherichia coli)
COc1ccc(C=C2OC(=O)C([C@@H](O)c3cc(Br)c(OC)c(Br)c3)=C2c2cc(Br)c(O)c(Br)c2)cc1,6.3 µg/mL,50.8 µM,3.1 µg/mL,3.1 µg/mL,13.5 µM,3.1 µg/mL,> 120 µM,> 100 µM,38.5 µM,1.6 µg/mL,> 100 µg/mL
COC(=O)C(C(=O)c1cc(Br)c(O)c(Br)c1)=C(C(=O)OC)c1cc(Br)c(O)c(Br)c1,100 µg/mL,53.7 µM,50 µg/mL,100 µg/mL,28 µM,100 µg/mL,> 120 µM,26.3 µM,19.2 µM,50 µg/mL,> 100 µg/mL
COC(=O)C(C(=O)c1cc(Br)c(O)c(Br)c1)=C(C(=O)OC)c1ccc(O)c(Br)c1,> 100 µg/mL,49.7 µM,> 100 µg/mL,> 100 µg/mL,145 µM,> 100 µg/mL,> 120 µM,47.6 µM,> 100 µM,> 100 µg/mL,> 100 µg/mL
O=C(O)CC[N+](=O)[O-],–,–,–,–,–,–,–,53.9 µM,–,–,–
CC1(C)S[C@@H]2[C@H](NC(=O)[C@H](N)c3ccccc3)C(=O)N2[C@H]1C(=O)O [AMPICILLIN],0.4 µg/mL,–,0.4 µg/mL,1.6 µg/mL,–,0.4 µg/mL,–,–,–,0.4 µg/mL,6.3 µg/mL
O=C1O/C(=C\c2cc(Br)c(O)c(Br)c2)C(c2ccc(O)c(Br)c2)=C1C(=O)c1cc(Br)c(O)c(Br)c1 [CADIOLIDE E],3.1 µg/mL,> 100 µM,1.6 µg/mL,3.1 µg/mL,2.5 µM,0.8 µg/mL,78.8 µM,8.9 µM,40.4 µM,1.6 µg/mL,> 100 µg/mL
COc1c(Br)cc([C@H](O)C2=C(c3ccc(O)c(Br)c3)/C(=C/c3ccc(O)c(Br)c3)OC2=O)cc1Br [CADIOLIDE G],3.1 µg/mL,> 100 µM,0.8 µg/mL,3.1 µg/mL,10.3 µM,3.1 µg/mL,> 120 µM,49.8 µM,> 100 µM,12.5 µg/mL,> 100 µg/mL
COC(=O)C1=C(c2cc(Br)c(O)c(Br)c2)C(=O)OC1=C(c1cc(Br)c(O)c(Br)c1)c1cc(Br)c(O)c(Br)c1 [CADIOLIDE I],0.8 µg/mL,51.2 µM,1.6 µg/mL,6.3 µg/mL,5 µM,0.8 µg/mL,> 120 µM,10.8 µM,52.7 µM,0.8 µg/mL,> 100 µg/mL
COc1cccc2c1C(=O)c1c(O)c3c(c(O)c1C2=O)C[C@@](O)(C(=O)CO)C[C@@H]3O[C@H]1C[C@H](N)[C@H](O)[C@H](C)O1 [DOXORUBICIN],–,4.7 µM,–,–,–,–,–,–,1.7 µM,–,–
C[C@@H]1O[C@@H](O[C@H]2C[C@@H](O)[C@]3(CO)[C@H]4[C@H](O)C[C@]5(C)[C@@H](C6=CC(=O)OC6)CC[C@]5(O)[C@@H]4CC[C@]3(O)C2)[C@H](O)[C@H](O)[C@H]1O [OUABAIN],–,–,–,–,5.8 µM,–,–,–,–,–,–
Para-Hydroxymercuribenzoic acid,–,–,–,–,–,–,106 µM,–,–,–,–
